System: sea lice (L. salmonis)
Experiment: In-feed treatment of sea lice infested salmon: efficacy
Assay type: in vivo, Lepeophtheirus salmonis on Atlantic salmon
Conditions: for Reduction of total sea lice: adult sea lice, lice examined ten days after end of treatment
From the text: In-feed treatment of sea lice infested salmon with 5 different neonicotinoids (a) Method: Atlantic salmon (estimated mean weight 50-100 g) were batch weighed and allocated to a single 2 m diameter challenge tank. Fish were challenged with sea lice (L. salmonis) copepodids. Within one week of the successful lice challenge, fish were randomly allocated from the 2 m challenge tank to 1 m diameter treatment tanks so that each tank contained thirty fish.
Fish were maintained until lice developed to adult stages. This was monitored by periodic examination of fish from the control tank. There were five test compounds acetamiprid (A), clothianidin (B), imidacloprid (C), nitenpyram (D) plus a control (E), each compound was tested at three doses. Experimental diets were prepared by top dressing feed pellets with the powder formulation and sealing with fish oil. Once lice had developed to adult stages, fish in all tanks received an in-feed treatment according to the relevant group for a period of seven days. Uneaten feed was collected daily to estimate the mean dose achieved in each group. Fish were examined for lice ten days following the end of the treatment period.
Following the 7day treatment period, the mean sea lice count in the control group was 7±3 adult sea lice meaning the total of adult males, adult non-ovigerous females and adult ovigerous females.

[1] = dose 1 mg/kg/day in feed for 7 days
[2] = dose 5 mg/kg/day in feed for 7 days
[3] = dose 10 mg/kg/day in feed for 7 days

SMILES | Reduction of total sea lice [1] [%] | Reduction of total sea lice [2] [%] | Reduction of total sea lice [3] [%] | sea lice reduction efficacy (at all three selected concentrations (10, 5, 1 mg/kg/day)) [%] | sea lice elimination (in-feed treatment, summary statement)
C/C(=N\C#N)N(C)Cc1ccc(Cl)nc1 [Acetamiprid, acetamiprid] | 53 | 64 | 85 |  | 
CN/C(=N\[N+](=O)[O-])NCc1cnc(Cl)s1 [Clothianidin, (E)-1-(2-Chlor-1,3-thiazol-5-ylmethyl)-3-methyl-2-nitroguanidin] | 90 | 98 | 99 | ≥ 90 | full sea lice elimination
O=[N+]([O-])NC1=NCCN1Cc1ccc(Cl)nc1 [Imidacloprid, imidacloprid] | 91 | 94 | 81 |  | 
CCN(Cc1ccc(Cl)nc1)/C(=C/[N+](=O)[O-])NC [Nitenpyram, nitenpyram] | 48 | 89 | 89 |  | 

From patent publication US20150272931A1, “New Treatment” (priority 2012, published 2015)
